# Entries after “also recorded” stand apart in the source; their conditions may differ.
# How the values were obtained:
# [1] = tested on: P493B lymphoma cells suspended in human plasma; experiment: Human tumor cell to plasma partitioning assay; type: cell-based; settings: 20 μM; 1 h; human plasma fraction
# Method: Human tumor cell to plasma partitioning assays were conducted as we have previously described.[25] Briefly, P493B lymphoma cells were grown at 37 °C, in a humidified atmosphere with 5% CO2. Cell confluency was estimated, and cells were harvested after achieving >80% confluency and centrifuged at 200g for 5 min at 25 °C. The obtained cell pellet was resuspended in 20 mL of Dulbecco’s phosphate-buffered saline (DPBS; Gibco, USA, cat. no. 14-190-144) maintained at 37 °C, and cell count was determined using an automated cell counter (Bio-Rad, USA). Cell suspension in DPBS was further centrifuged at 200g for 5 min at 25 °C, and the cell pellet was resuspended in human plasma (Innovative Research, USA) for partitioning assessment. The final cell density after resuspending in plasma was 10 million cells/mL of plasma. Partitioning assessment was performed in triplicate. Preincubated (37 °C for 5 min) cell–plasma suspension was spiked with DRP-104 or P11 at a final concentration of 20 μM and incubated at 37 °C for 1 h. Following incubation, a 1 mL aliquot of cell–plasma suspension was centrifuged at 1000g for 5 min at 4 °C, and supernatant plasma as well as the cell pellet was collected and stored at −80 °C until bioanalysis. Both plasma and cell pellet fractions were analyzed for intact prodrug and DON levels. […]
# [2] = Metabolic stability in mouse intestinal homogenate (GIh)
# Method: (§1) Briefly, intestinal tissue was homogenized over ice via probe sonication with 1:9 tissue to potassium phosphate buffer (0.1 M) conditions. Prodrugs were spiked in plasma or tissue homogenate at 10 μM final concentration with 0.2% DMSO v/v and incubated in triplicate for 0 and 60 min time points. At each time point, 100 μL of the sample was precipitated with 300 μL of methanol containing internal standard (IS; losartan, 0.5 μM). Precipitated samples were vortexed (30 s) and centrifuged at 10000g for 10 min at 4 °C. After centrifugation, 100 μL of supernatant was aliquoted and submitted for analysis. Prodrug disappearance over time was monitored by liquid chromatography–mass spectrometry (LC–MS) through peak area ratios between the analyte and internal standard.
# (§2) Chromatographic analysis was performed on a Dionex ultra-high-performance LC system coupled with a Q Exactive Focus Orbitrap mass spectrometer (Thermo Fisher Scientific Inc., Waltham, MA). Separation was achieved using an Agilent Eclipse Plus column (100 × 2.1 mm i.d.; maintained at 35 °C) packed with a 1.8 μm C18 stationary phase. The mobile phase used was composed of 0.1% formic acid in acetonitrile and 0.1% formic acid in water with gradient elution, starting with 2.5% organic phase (from 0 to 0.25 min) and linearly increasing to 99% (from 0.25 to 1.25 min) and re-equilibrating to 2.5% by 4 min. The total run time for each analyte was 5 min. Pumps were operated at a flow rate of 0.4 mL/min. The mass spectrometer controlled by Xcalibur software 4.0.27.13 (Thermo Scientific) was operated with an HESI ion source in positive ionization mode for all compounds. Compounds were identified in the full-scan mode with m/z ranging from 75 to 1125.
# [3] = Stability of P11 in human plasma; type: in vitro ADME; settings: Figure 3A
# Method: as §1
# [4] = Metabolic stability in mouse plasma
# Method: as §1, §2
# [5] = Single time point pharmacokinetic screening, released DON in plasma and tumor of EL4 tumor-bearing mice; type: in vivo, C57BL/6/CES1–/– mice; settings: 1 mg/kg DON equivalent SC; 30 min
# Method: C57BL/6/CES1^–/– mice were obtained as a gift from the United States Army Medical Research Institute of Chemical Defense, Maryland, USA; breeding was performed in the Johns Hopkins animal facility and was conducted according to protocols reviewed and approved by the Johns Hopkins Institutional Animal Care and Use Committee in compliance with the Association for Assessment and Accreditation of Laboratory Animal Care International (AAALAC) and the Public Health Service Policy on the Humane Care and Use of Laboratory Animals (PHS Policy). Male and female C57BL/6 mice (weighing between 25 and 30 g) 6–8 weeks of age were used for the study. The animals were maintained on a 12 h light–dark cycle with ad libitum access to food (certified laboratory food: Teklad 18% Protein Extruded Rodent Diet) and water. EL4 mouse lymphoma cells were obtained as a gift from the laboratory of Dr. Jonathan Powell (Johns Hopkins University, Baltimore, MD) and maintained in RPMI 1640 medium 1X (Corning, cat. no. 10-040-CV) with 10% (v/v) fetal bovine serum (Corning, cat. no. 35-011-CV), 1% (v/v) antimycotic/antibiotic (Corning, cat. no. 30-004-CI), 2 mM L-glutamine (Corning, cat. no. 25-005-CI), and 10 mM HEPES (Corning, cat. no. 25-060-CI) in a 5% (v/v) CO2 and 95% (v/v) air incubator prior to subcutaneous (SC) injection (1 × 10^6 cells in 0.2 mL of phosphate-buffered saline) on the flank of each mouse. […]
# [6] = Chemical (aqueous) stability in buffer pH 7.4; type: physicochemical; settings: 10 μM; pH 7.4 PBS; 37 °C; 24 h; HRMS/LCMS
# Method: The aqueous solubility was determined as previously reported with minor modifications.[48] Briefly, an excess amount of P11 or DRP-104 was added to PBS buffer (pH 7.4) and sonicated for 1 h at 37 °C to ensure saturation. After 1 h, the solution was filtered (0.45 μm PTFE), and the filtrate was diluted appropriately, and the concentration of each analyte was determined via LC–MS. Chemical stabilities of DRP-104 and P11 were done as previously described[18] with modifications. For chemical stability, prodrugs were spiked (10 μM) in buffer at pH 7.4 and incubated at 37 °C for 24 h. Prodrug disappearance was monitored using the developed HRMS methods.
# [7] = supplementary CSV, unit not given, matches Table 1 % remaining at 1 h, in %
compound,measurement,setting,value
"CN(C)CC(=O)N[C@@H](Cc1ccccc1)C(=O)N[C@@H](CCC(=O)C=[N+]=[N-])C(=O)OC(C)(C)C [Prodrug P11, tert-Butyl (S)-6-Diazo-2-((S)-2-(2-(dimethylamino)acetamido)-3-phenylpropanamido)-5-oxohexanoate]",stability and DON release in human plasma,[1],stable in human plasma with no DON release
same,"remaining at 1 h, 10 µM","[2]; CES1–/–, mouse, intestinal homogenate",78 ± 2%
same,Intestinal homogenate,[2]; [7],78 ± 2
same,stability in human plasma,[3],confirmed
same,"remaining at 1 h, 10 µM","[4]; CES1–/–, mouse, plasma",93 ± 1%
same,Plasma,[4]; [7],93 ± 1
same,preferential DON tumor versus plasma delivery,[5],maintained the preferential DON tumor versus plasma delivery
same,chemical stability in buffer,[6],remained intact without any degradation; also recorded: no degradation

# From PMC10683027, “Discovery of tert-Butyl Ester Based 6-Diazo-5-oxo-L-norleucine Prodrugs for Enhanced Metabolic Stability and Tumor Delivery” (Journal of Medicinal Chemistry, 2023)
